{
  "source": "paper PMC9082844",
  "about": "(Journal of Biomedical Science, 2022)",
  "key": {"KDM4A": {"target": "T1, KDM4A (Homo sapiens, UniProt O75164)", "T1 sequence (O75164 1-1064)": "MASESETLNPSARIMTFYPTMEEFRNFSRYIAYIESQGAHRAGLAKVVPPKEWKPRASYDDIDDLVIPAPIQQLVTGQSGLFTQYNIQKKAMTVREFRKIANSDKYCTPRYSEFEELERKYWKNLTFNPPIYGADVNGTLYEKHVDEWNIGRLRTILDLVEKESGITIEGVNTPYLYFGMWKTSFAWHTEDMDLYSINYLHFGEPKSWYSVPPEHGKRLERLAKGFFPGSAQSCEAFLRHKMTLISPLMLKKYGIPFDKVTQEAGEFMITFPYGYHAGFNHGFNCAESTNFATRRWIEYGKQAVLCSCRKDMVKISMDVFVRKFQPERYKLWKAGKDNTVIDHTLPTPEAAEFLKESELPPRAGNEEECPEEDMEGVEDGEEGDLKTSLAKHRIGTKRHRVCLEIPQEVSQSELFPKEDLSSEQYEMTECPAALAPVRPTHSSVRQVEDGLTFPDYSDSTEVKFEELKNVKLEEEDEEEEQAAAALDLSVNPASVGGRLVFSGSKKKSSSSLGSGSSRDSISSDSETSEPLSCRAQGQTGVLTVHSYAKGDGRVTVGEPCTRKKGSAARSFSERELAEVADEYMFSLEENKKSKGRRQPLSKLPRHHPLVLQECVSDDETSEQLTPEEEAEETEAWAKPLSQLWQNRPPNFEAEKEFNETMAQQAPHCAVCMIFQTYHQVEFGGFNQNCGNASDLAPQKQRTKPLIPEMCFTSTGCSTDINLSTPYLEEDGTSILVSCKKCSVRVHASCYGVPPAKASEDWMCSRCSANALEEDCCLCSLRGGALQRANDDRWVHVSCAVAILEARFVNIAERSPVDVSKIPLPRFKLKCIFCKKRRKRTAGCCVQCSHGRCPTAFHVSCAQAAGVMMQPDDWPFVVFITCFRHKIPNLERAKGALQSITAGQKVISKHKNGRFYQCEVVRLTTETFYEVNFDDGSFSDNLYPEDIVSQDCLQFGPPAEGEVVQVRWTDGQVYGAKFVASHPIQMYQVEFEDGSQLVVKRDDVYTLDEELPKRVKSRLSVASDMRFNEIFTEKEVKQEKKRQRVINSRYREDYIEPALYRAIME", "test": "FDH-coupled demethylase assay, KDM4A", "assay_type": "biochemical", "conditions": "pyrocatechol analogue; read-out: inhibitory effect"}, "JMJD2E/KDM4E": {"tested_on": "JMJD2E/KDM4E", "design": "method as in PMID 24260783, PMID 21124847", "conditions": "in vitro; cited from earlier work"}, "CWR22Rv1": {"tested_on": "CWR22Rv1", "test": "MTT assay, CWR22Rv1", "assay_type": "cell-based", "conditions": "3 days", "protocol": "(§1) Cells (3 × 10^3) were seeded in a 96-well plate 1 day before the treatment. Cell proliferation was measured by MTT colorimetric assay according to the manufacturer’s instruction (Roche, Indianapolis, IN, USA).\n(§2) B H3K9me3 and H3K36me3 levels in myricetin-treated C4-2B cells for 2 days. The H3K9me3, H3K36me3, and H3 signals were detected in cell lysates by western blot analysis. M myricetin"}, "KDM4B [1]": {"target": "T2, KDM4B (Homo sapiens, UniProt O94953)", "T2 sequence (O94953 1-1096)": "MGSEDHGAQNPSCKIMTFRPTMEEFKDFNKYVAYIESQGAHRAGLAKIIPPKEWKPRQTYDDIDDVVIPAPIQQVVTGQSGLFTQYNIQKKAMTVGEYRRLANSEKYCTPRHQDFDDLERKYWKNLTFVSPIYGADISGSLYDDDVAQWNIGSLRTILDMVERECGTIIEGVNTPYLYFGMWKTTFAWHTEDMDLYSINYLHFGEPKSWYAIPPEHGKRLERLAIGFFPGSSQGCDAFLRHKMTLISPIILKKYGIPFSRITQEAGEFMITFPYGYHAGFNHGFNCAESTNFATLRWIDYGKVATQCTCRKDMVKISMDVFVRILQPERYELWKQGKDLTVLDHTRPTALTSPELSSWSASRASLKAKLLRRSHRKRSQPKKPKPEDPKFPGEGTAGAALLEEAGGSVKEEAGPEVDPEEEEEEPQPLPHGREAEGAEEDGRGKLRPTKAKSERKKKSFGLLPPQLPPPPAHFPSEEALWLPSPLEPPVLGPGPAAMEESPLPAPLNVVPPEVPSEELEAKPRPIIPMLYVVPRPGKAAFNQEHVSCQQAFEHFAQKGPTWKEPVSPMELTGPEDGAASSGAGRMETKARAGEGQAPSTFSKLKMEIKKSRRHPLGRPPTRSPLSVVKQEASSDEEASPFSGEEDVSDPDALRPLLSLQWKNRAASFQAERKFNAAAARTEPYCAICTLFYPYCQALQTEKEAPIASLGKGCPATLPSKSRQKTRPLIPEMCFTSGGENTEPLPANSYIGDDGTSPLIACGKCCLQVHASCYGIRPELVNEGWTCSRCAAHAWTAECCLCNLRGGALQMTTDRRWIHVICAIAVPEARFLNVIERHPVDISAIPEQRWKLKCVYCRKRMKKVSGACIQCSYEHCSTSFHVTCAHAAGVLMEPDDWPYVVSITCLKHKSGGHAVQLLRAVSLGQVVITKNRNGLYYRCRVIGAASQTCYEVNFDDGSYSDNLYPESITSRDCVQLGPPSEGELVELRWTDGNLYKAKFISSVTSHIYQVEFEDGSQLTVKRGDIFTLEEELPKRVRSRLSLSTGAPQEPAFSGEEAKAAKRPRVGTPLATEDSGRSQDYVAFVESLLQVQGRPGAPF", "test": "FDH-coupled demethylase assay, KDM4B", "assay_type": "biochemical", "protocol": "All the reagents were stored at -30 °C."}, "RWPE-1": {"tested_on": "RWPE-1", "test": "MTT assay, RWPE-1", "assay_type": "cell-based", "conditions": "immortalized normal RWPE-1, 3 days", "protocol": "as §1, §2"}, "LNCaP cells": {"tested_on": "LNCaP cells", "test": "MTT assay, LNCaP", "assay_type": "cell-based", "conditions": "Homo sapiens, 72 h, 3 days, read-out: IC50, cell viability", "protocol": "as §1\nThe IC50 value of each drug was determined by treating cells with the drug (0‒160 μM) for three days. For combination evaluation, a twofold serial dilution of each drug and its combination points above and below its IC50 value was used in an array format. Combination index (CI) values were calculated by CompuSyn software. The values of the combination dose–response curve, which represents drug-effect-shift analysis, were normalized to IC50 values of each single molar concentration of drugs (IC50 eq), and the plots were generated by Graphpad Prism 7.\nas §2"}, "[2]": {"conditions": "cited from earlier work"}, "KDM4B [3]": {"target": "T2, KDM4B", "test": "H3 demethylation with histones as substrate, Western blot, KDM4B", "assay_type": "biochemical", "conditions": "50 μM myricetin (legend also 100 μM inhibitor), 37 °C 30 min"}, "C4-2B cells": {"tested_on": "C4-2B cells", "test": "Histone methylation levels in treated C4-2B cells, western blot", "assay_type": "cell-based", "conditions": "treated 2 days", "protocol": "Total cell lysates were obtained by lysing the cell with buffer [50 mM Tris–HCl pH7.5 (Thermo Fisher Scientific, Waltham, MA, USA), 150 mM NaCl (Honeywell International, Inc., Charlotte, NC, USA), 0.5% Triton X-100 (Sigma-Aldrich), 10% glycerol (Honeywell International, Inc.), 1 mM EDTA (Affymetrix Inc.), and cock-tail protease inhibitors] for 15 min on ice, followed by 10 min of sonication cycle (30 s on, 30 s off) on ice. The level of total histone 3 and trimethylated histone H3K9 was analyzed by western blotting using anti-histone 3 (Cell Signaling, Danvers, MA, USA) and anti-H3K9me3 (Millipore, Burlington, MA, USA).\nas §2"}, "C4-2B": {"tested_on": "C4-2B", "test": "MTT assay, C4-2B", "assay_type": "cell-based", "conditions": "72 h, 3 days, read-out: IC50, proliferation"}, "LNCaP cell": {"tested_on": "LNCaP cell", "design": "method as in PMID 24971742", "conditions": "cited from earlier work"}, "C4-2B xenografts": {"tested_on": "C4-2B xenografts", "test": "C4-2B xenograft", "assay_type": "in vivo, Balb/c nu/nu mice", "protocol": "C4-2B cells (1 × 10^6 cells) were suspended in a culture medium and mixed with Matrigel Matrix (BD, Franklin Lakes, NJ, USA). The mixtures were implanted subcutaneously into six- to eight-week-old male Balb/c nu/nu mice. […] Tumor volumes were measured for up to 3 weeks. The tumor volume was calculated using the formula: length × width × height × 0.52. Statistical analysis was conducted as described below. The animal protocols for mice experiments were approved by National Tsing Hua University Institutional Animal Care and Use Committee (approval number: NTHU-IACUC-10478) and carried out under the institutional guidelines with animal welfare standards.\nCells were treated with different concentrations of M or PLGA-M for 24 h, followed by MTT assay. B C4-2B cells (1 × 10^6) were implanted subcutaneously in the hindlimb of nude mice. […] Tumor volumes were measured for up to 3 weeks. Tumor volume was calculated using the formula (length × width × height × 0.52). Statistical significance was evaluated using Student’s t-test. C Representative IHC images of Ki67 and CD31 analysis of xenograft tumor sections from mice treated with vehicle, PLGA-M, Enza, or Enza + PLGA-M. D The proportion of Ki67 + cell was rescored in each field (400 ×) for six random fields in each group of IHC images. CD31 positive vessels in each field (100 ×) were scored for six random fields in each group. Significance was calculated using Student’s t-test. *P < 0.05; **P < 0.01; ***P < 0.001"}},
  "note": "Like-named read-outs stand apart in the source and are kept apart here.",
  "data": [
    {"smiles": "O=C(O)c1ccc(O)c(O)c1", "note": "[BPRKD063S0, 3,4-dihydroxybenzoic acid]", "values": [
      {"measurement": "IC50", "setting": "KDM4A", "value": 560, "unit": "nM"}
    ]},
    {"smiles": "CN(C)CCCNC(=O)c1ccc(-c2cc(O)c3ncccc3c2)cc1", "note": "[ML324]", "values": [
      {"measurement": "inhibitory activity toward JMJD2E/KDM4E", "setting": "JMJD2E/KDM4E", "value": "submicromolar"}
    ]},
    {"smiles": "O=c1c(O)c(-c2cc(O)c(O)c(O)c2)oc2cc(O)cc(O)c12", "note": "[Myricetin, 3,5,7-trihydroxy-2-(3,4,5-trihydroxyphenyl)-4H-chromen-4-one]", "values": [
      {"measurement": "proliferation", "setting": "CWR22Rv1", "value": "significantly reduced"},
      {"measurement": "Ki", "setting": "KDM4B [1]; increasing concentrations of H3K9me3 peptide, read-out: Ki, non-competitive with H3K9me3 peptide, KDM4B", "value": 1010, "unit": "nM"},
      {"measurement": "Ki", "setting": "KDM4B [1]; increasing concentrations of α-KG, Lineweaver–Burk, read-out: Ki, competitive with α-KG, KDM4B", "value": 530, "unit": "nM"},
      {"measurement": "effect on cell growth", "setting": "RWPE-1", "value": "essentially no effect"},
      {"measurement": "IC50", "setting": "LNCaP cells", "value": "18500 ± 800", "unit": "nM"},
      {"measurement": "bioavailability through the oral route", "setting": "[2]", "value": "poor"},
      {"measurement": "demethylation of H3K9me3 or H3K36me3 by KDM4B", "setting": "KDM4B [3]", "value": "blocked"},
      {"measurement": "H3K9me3 level vs untreated cells", "setting": "C4-2B cells", "value": "higher level"},
      {"measurement": "H3K36me3 signal vs untreated cells", "setting": "C4-2B cells", "value": "comparable"},
      {"measurement": "IC50", "setting": "C4-2B", "value": "20600 ± 900", "unit": "nM"}
    ]},
    {"smiles": "O=[N+]([O-])c1cc([N+](=O)[O-])c(/C=C/c2ccc(Cl)c(Cl)c2)cc1/C=C/c1ccc(Cl)c(Cl)c1", "note": "[NSC636819]", "values": [
      {"measurement": "LNCaP cell proliferation", "setting": "LNCaP cell", "value": "strongly inhibits"}
    ]},
    {"smiles": "O=c1c(O)c(-c2ccc(O)c(O)c2)oc2cc(O)cc(O)c12", "note": "[Quercetin, 2-(3,4-dihydroxyphenyl)-3,5,7-trihydroxychromen-4-one]", "values": [
      {"measurement": "IC50", "setting": "KDM4B [1]; FDH-coupled assay", "value": 2400, "unit": "nM"},
      {"measurement": "KDM4B Relative Activity (%)", "setting": "KDM4B [1]; FDH-coupled assay, compound concentration not given", "value": 5.3, "unit": "%"}
    ]},
    {"smiles": "CNC(=O)c1ccc(N2C(=S)N(c3ccc(C#N)c(C(F)(F)F)c3)C(=O)C2(C)C)cc1F", "note": "[enzalutamide]", "values": [
      {"measurement": "tumor growth vs vehicle at day 13", "setting": "C4-2B xenografts; PLGA-M i.p. 20 mg/kg three times a week, Enza oral 12.5 mg/kg five times a week, p = 0.0002", "value": "significant impairment of tumor growth"},
      {"measurement": "CD31 in xenografts (IHC)", "setting": "C4-2B xenografts; vs vehicle group", "value": "significantly higher level of CD31 was detected in the vehicle group"},
      {"measurement": "Ki-67 expression in xenografts (IHC)", "setting": "C4-2B xenografts; vs vehicle group", "value": "significantly lower"}
    ]}
  ]
}
